The target of the first experiment is recombinant human ACC2 (Homo sapiens (Human), UniProt O00763). The experiment can be described thus: Measurement of inhibitory activity on human ACC2 (MALDI-TOF MS, acetyl CoA to malonyl CoA conversion). The experiment is classed as biochemical. The settings on record: Table 154. The text has this: Preparation 1: Preparation of Recombinant Human ACC2
recombinant human ACC2, sequence (O00763 27-2458): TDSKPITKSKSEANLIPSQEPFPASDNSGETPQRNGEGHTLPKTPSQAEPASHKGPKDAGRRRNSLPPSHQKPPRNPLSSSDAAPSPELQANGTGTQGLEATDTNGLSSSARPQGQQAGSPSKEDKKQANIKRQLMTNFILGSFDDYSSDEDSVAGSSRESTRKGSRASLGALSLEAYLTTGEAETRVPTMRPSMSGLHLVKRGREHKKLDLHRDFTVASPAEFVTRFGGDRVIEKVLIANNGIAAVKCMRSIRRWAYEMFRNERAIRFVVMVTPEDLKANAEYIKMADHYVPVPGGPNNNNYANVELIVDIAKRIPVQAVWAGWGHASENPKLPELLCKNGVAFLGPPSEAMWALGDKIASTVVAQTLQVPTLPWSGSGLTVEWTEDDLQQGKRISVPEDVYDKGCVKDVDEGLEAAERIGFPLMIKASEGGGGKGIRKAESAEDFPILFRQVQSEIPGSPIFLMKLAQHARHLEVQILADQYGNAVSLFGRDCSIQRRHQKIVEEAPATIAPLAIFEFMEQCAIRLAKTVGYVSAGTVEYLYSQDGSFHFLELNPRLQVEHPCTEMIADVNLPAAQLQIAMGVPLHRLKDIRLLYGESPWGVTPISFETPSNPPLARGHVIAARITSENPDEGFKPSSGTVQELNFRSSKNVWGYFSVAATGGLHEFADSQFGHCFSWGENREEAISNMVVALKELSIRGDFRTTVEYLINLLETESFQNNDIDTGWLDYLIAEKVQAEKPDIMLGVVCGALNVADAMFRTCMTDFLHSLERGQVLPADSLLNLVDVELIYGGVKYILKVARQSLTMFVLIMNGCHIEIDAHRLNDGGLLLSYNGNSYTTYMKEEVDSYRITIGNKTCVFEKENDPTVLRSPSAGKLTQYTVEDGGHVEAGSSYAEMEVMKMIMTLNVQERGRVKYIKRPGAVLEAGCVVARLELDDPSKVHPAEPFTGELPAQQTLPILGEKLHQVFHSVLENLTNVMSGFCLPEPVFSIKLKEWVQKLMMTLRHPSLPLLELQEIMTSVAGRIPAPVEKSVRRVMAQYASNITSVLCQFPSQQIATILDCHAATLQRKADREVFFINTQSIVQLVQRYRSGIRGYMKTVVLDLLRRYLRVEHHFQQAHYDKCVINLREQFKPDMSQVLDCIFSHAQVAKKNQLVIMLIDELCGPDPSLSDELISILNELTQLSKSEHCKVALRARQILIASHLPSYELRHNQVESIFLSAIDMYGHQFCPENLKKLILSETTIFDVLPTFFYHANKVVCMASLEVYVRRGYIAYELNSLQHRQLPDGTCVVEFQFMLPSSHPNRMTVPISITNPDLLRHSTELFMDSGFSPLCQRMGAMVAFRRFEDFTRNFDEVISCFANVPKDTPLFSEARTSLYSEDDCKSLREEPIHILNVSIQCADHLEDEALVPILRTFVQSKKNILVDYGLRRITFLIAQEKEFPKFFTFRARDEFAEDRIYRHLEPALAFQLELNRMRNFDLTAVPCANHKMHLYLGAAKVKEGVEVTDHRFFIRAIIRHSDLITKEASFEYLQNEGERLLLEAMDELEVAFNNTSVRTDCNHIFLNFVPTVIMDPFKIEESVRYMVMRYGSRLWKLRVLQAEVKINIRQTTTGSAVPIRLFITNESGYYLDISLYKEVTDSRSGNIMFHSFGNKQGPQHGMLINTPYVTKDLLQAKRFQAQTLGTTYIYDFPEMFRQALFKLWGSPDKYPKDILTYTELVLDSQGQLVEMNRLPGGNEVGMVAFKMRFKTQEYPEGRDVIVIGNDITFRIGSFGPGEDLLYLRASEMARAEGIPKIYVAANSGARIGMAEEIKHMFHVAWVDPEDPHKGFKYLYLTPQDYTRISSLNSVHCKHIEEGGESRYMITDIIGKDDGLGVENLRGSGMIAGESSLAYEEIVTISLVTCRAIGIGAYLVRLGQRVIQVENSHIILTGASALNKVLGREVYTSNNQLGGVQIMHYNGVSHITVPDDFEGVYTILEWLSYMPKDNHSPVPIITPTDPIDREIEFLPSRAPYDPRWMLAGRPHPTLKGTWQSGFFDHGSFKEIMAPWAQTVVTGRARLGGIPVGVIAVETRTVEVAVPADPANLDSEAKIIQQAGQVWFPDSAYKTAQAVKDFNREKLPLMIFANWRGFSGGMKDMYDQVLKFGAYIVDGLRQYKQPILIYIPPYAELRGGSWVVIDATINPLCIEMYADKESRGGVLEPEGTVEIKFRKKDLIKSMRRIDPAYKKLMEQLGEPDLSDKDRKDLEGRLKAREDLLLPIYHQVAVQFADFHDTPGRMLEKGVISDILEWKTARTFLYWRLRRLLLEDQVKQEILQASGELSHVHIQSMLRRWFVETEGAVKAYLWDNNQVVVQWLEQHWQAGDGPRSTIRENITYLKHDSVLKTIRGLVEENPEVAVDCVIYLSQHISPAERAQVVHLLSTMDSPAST
After a cDNA encoding human ACC2 (27 amino acid residue to 2458 amino acid residues from the N-terminus) was cloned from human kidney cDNA library (Clontech), human ACC2 gene containing His-tag sequence at 5′ terminus was inserted into pFastBac1 (Invitrogen). Recombinant baculovirus was generated using Bac-to-Bac baculovirus expression system (Invitrogen) according to the manufacturer's protocol. To express human ACC2, Sf-9 cells were infected with recombinant baculovirus. After infected cells were disrupted, the filtrated lysate was subjected to Ni-affinity chromatography and anion-exchange chromatography. The fractions containing human ACC2 protein were pooled as recombinant human ACC2 solution.
The Measurement of Inhibitory Activity on Human ACC1 and the ACC2
Recombinant human ACC1 and recombinant human ACC2, which were prepared by the method mentioned above, were preincubated with assay buffer solution (50 mM HEPES-KOH (pH 7.4), 10 mM magnesium chloride, 6-10 mM potassium citrate, 4 mM reduced form of glutathione, 1.5 mg/ml bovine serum albumin) for one hour. Then, 0.2 μL of each this invention compound solution (in DMSO) were dispensed to 384-well microplate, 5 μL of the preincubated enzyme solution and 5 μL of substrate solution (50 mM HEPES-KOH (pH 7.4), 1 mM ATP, 0.8 mM acetyl CoA and 25-50 mM potassium bicarbonate) were added to microplate. After centrifugation and shaking, the reaction mixtures were incubated in a humidified box at room temperature for 1 to 3 hours. After the incubation, the enzyme reactions were stopped by the addition of EDTA. Then, after the samples were cocrystallized with CHCA (α-cyano-4-hydroxy cinnamic acid) matrices on MALDI target plate, by using the matrix assist laser […] time-of-flight mass spectrometer (MALDI-TOF MS), samples were measured in reflector negative mode. Deprotonated ions of acetyl CoA (AcCoA) of substrate and malonyl CoA (MalCoA) of the reaction product were detected, then, the conversion rates of acetyl CoA to malonyl CoA was calculated by the intensity of [MalCoA-H]−/(Intensity of [MalCoA-H]−+Intensity of [AcCoA-H]−) using each signal strength. […] In addition, potassium citrate concentrations in assay buffer solution, potassium hydrogen carbonate concentrations in substrate solution and incubation time were adjusted by each lot of enzyme.
The IC50 is the point on the concentration scale where inhibition reaches its midpoint. For the compound `CCOc1nc2ccc(O[C@H]3C[C@H](OC[C@H](C)NC(C)=O)C3)c(F)c2s1` [Compound I-074], the IC50 amounted to 85 nM.

As for `CCOc1nc2ccc(O[C@H]3C[C@H](OC[C@H](C)NC(C)=O)C3)c(Cl)c2s1` [Compound I-075], the IC50 came to 20 nM.

For the compound `CCOc1nc2ccc(O[C@H]3C[C@@H](OC[C@H](C)NC(C)=O)C3)c(F)c2s1` [Compound I-076], the IC50 was found to be 102 nM.

For the compound `CCOc1nc2ccc(O[C@H]3C[C@@H](OC[C@H](C)NC(C)=O)C3)c(Cl)c2s1` [Compound I-077], the half-inhibitory concentration (IC50) was 168 nM.

`CCOc1nc2ccc(O[C@H]3CC[C@](C)(OC[C@H](C)NC(C)=O)CC3)c(F)c2s1` [Compound I-078]: the IC50 turned out to be 189 nM.

As to `CC(=O)N[C@@H](C)COc1cnc(Oc2ccc3c(c2Cl)OCCN(CC(F)(F)F)C3=O)cn1` [Compound I-080], the IC50 was found to be 1290 nM.

For the compound `CC(=O)N[C@@H](C)COc1cnc(Oc2ccc3c(c2Cl)OCCN(C(C)C)C3=O)cn1` [Compound I-082], the IC50 worked out at 3800 nM.

As for `CCOc1nc2ccc(O[C@H]3CC[C@](C)(OC[C@H](C)NC(C)=O)CC3)c(Cl)c2s1` [Compound I-083], the IC50 turned out to be 351 nM.

For the compound `CCOc1nc2ccc(OC[C@H]3C[C@@H](OC[C@H](C)NC(C)=O)C3)c(F)c2s1` [Compound I-086], the IC50 was 42 nM.

Turning to `CCOc1nc2ccc(OC[C@H]3C[C@@H](OC[C@H](C)NC(C)=O)C3)c(Cl)c2s1` [Compound I-087], the IC50 was found to be 65 nM.

As for `CCOc1nc2ccc(OC[C@H]3C[C@H](OC[C@H](C)NC(C)=O)C3)c(F)c2s1` [Compound I-088], the IC50 was 15 nM.

For `CCOc1nc2ccc(OC[C@H]3C[C@H](OC[C@H](C)NC(C)=O)C3)c(Cl)c2s1` [Compound I-089], the IC50 was found to be 62 nM.

As to `CC(=O)N[C@@H](C)COc1cnc(Oc2ccc(C(=O)Nc3ccc(F)cc3)c(F)c2F)cn1` [Compound I-090], the IC50 is 45 nM.

`CCOc1nc2ccc(Oc3cnc(OC[C@H](CO)NC(C)=O)cn3)c(F)c2s1` [Compound I-092]: the IC50 was 89 nM.

Regarding `CC(=O)N[C@@H](C)CO[C@H]1CC[C@H](Oc2ccc3c(c2Cl)OCCN(CC(F)(F)F)C3=O)CC1` [Compound I-094], the IC50 was 187 nM.

With `CC(=O)N[C@@H](C)COc1cnc(Oc2ccc(C(=O)NCC(C)C)c(F)c2F)cn1` [Compound I-095], the IC50 turned out to be 1050 nM.

Take `CC(=O)N[C@@H](C)COc1cnc(Oc2ccc(C(=O)N3CCCCC3)c(F)c2F)cn1` [Compound I-096]: the IC50 was 775 nM.

Consider `CC(=O)N[C@@H](C)CO[C@H]1C[C@H](COc2ccc3nc(C(C)(F)F)sc3c2F)C1` [Compound I-097], for which the IC50 stood at 97 nM.

As to `CC(=O)N[C@@H](C)CO[C@H]1C[C@H](COc2ccc3nc(C(C)(C)O)sc3c2F)C1` [Compound I-099], the IC50 worked out at 148 nM.

Regarding `CCOc1nc2cc(Cl)c(OC[C@H]3C[C@H](OC[C@H](C)NC(C)=O)C3)cc2s1` [Compound I-100], the IC50 came to 27 nM.

Consider `CCOc1nc2ccc(OC[C@H]3C[C@H](OC[C@H](C)NC(C)=O)C3)cc2s1` [Compound I-101], for which the IC50 worked out at 26 nM.

Take `CC(=O)N[C@@H](C)CO[C@H]1CC[C@H](Oc2ncc(-c3ccccc3)cc2F)CC1` [Compound I-102]: the IC50 stood at 44 nM.

With `CC(=O)N[C@@H](C)CO[C@H]1CC[C@H](Oc2ncc(-c3ccccc3)cc2Cl)CC1` [Compound I-104], the IC50 was determined as 12 nM.

In the case of `CC(=O)N[C@@H](C)CO[C@H]1CC[C@H](Oc2ncc(-c3ccccc3)cc2C#N)CC1` [Compound I-105], the IC50 amounted to 182 nM.

The experiment is the same for the next values; noted with them: Tables 155-159.
In the case of `CC(=O)N[C@@H](C)CO[C@H]1C[C@H](COc2ccc3nc(C(C)(F)F)sc3c2F)C1` [Compound I-107], the IC50 stood at 97 nM.

For `CC(=O)N[C@@H](C)CO[C@H]1C[C@H](COc2ccc3nc(C(C)(F)F)sc3c2Cl)C1` [Compound I-108], the IC50 amounted to 792 nM.

For `CC(=O)N[C@@H](C)CO[C@H]1C[C@H](COc2ccc3nc(C(C)(C)O)sc3c2F)C1` [Compound I-109], the IC50 was 148 nM.

With `CCOc1nc2cc(Cl)c(OC[C@H]3C[C@H](OC[C@H](C)NC(C)=O)C3)cc2s1` [Compound I-110], the IC50 amounted to 27 nM.

Consider `CCOc1nc2ccc(OC[C@H]3C[C@H](OC[C@H](C)NC(C)=O)C3)cc2s1` [Compound I-111], for which the IC50 turned out to be 26 nM.

For the compound `CC(=O)N[C@@H](C)CO[C@H]1CC[C@H](Oc2ccc3nc(OC(C)CF)sc3c2Cl)CC1` (stereo partly drawn) [Compound I-112], the IC50 came out at 31 nM.

For `CC(=O)N[C@@H](C)CO[C@H]1CC[C@H](Oc2ccc3nc(OC(C)C)sc3c2Cl)CC1` [Compound I-113], the IC50 was 10 nM.

On to `CC(=O)N[C@@H](C)CO[C@H]1CC[C@H](Oc2cc3sc(OC(C)C)nc3cc2Cl)CC1` [Compound I-114], for which the IC50 came out at 193 nM.

Consider `CCOc1nc2ccc(OC[C@]3(F)C[C@@H](OC[C@H](C)NC(C)=O)C3)c(F)c2s1` [Compound I-115], for which the IC50 amounted to 12 nM.

For `CCOc1nc2ccc(OC[C@]3(F)C[C@@H](OC[C@H](C)NC(C)=O)C3)c(Cl)c2s1` [Compound I-116], the IC50 worked out at 41 nM.

As for `CC(=O)N[C@@H](C)CO[C@H]1CC[C@H](Oc2ccc3nc(C4(F)CC4)sc3c2F)CC1` [Compound I-117], the IC50 was 7 nM.

As for `CC(=O)N[C@@H](C)CO[C@H]1CC[C@H](Oc2ccc3nc(OC4CC4)sc3c2F)CC1` [Compound I-118], the IC50 was 10 nM.

Consider `CC(=O)N[C@@H](C)CO[C@H]1CC[C@H](Oc2ccc3nc(OCC4CC4)sc3c2F)CC1` [Compound I-119], for which the 50% inhibitory concentration (IC50) came to 4 nM.

Turning to `CC(=O)N[C@@H](C)CO[C@H]1CC[C@H](Oc2ccc3nc(OCC4(F)COC4)sc3c2F)CC1` [Compound I-120], the IC50 is 22 nM.

On to `CC(=O)N[C@@H](C)CO[C@H]1CC[C@H](Oc2ccc3nc(OCC(F)(F)F)sc3c2F)CC1` [Compound I-121], for which the IC50 was 9 nM.

Take `CC(=O)N[C@@H](C)CO[C@H]1CC[C@H](Oc2ccc3nc(OC(C)C)sc3c2F)CC1` [Compound I-122]: the IC50 turned out to be 12 nM.

Regarding `CC(=O)N[C@@H](C)CO[C@H]1CC[C@H](Oc2ccc3nc(OCC(F)F)sc3c2F)CC1` [Compound I-123], the IC50 was determined as 15 nM.

As to `CC(=O)N[C@@H](C)CO[C@H]1CC[C@H](Oc2ccc3nc(Cl)sc3c2F)CC1` [Compound I-124], the IC50 was 37 nM.

Consider `CC(=O)N[C@@H](C)CO[C@H]1CC[C@H](Oc2ccc3nc(OC4(C)CC4)sc3c2F)CC1` [Compound I-125], for which the IC50 was 29 nM.

Take `CC(=O)N[C@@H](C)CO[C@H]1C[C@H](COc2cc3sc(C(C)C)nc3cn2)C1` [Compound I-126]: the IC50 worked out at 398 nM.

`CC(=O)N[C@@H](C)CO[C@H]1C[C@H](COc2ccc3nc(C(C)C)sc3c2F)C1` [Compound I-127]: the IC50 amounted to 84 nM.

Turning to `CC(=O)N[C@@H](C)CO[C@H]1C[C@H](COc2ccc3nc(C(C)C)sc3c2)C1` [Compound I-128], the IC50 worked out at 50 nM.

As for `CC(=O)N[C@@H](C)CO[C@H]1CC[C@H](Oc2ccc3nc(OCC(C)(C)O)sc3c2F)CC1` [Compound I-129], the IC50 amounted to 139 nM.

Regarding `CC(=O)N[C@@H](C)CO[C@H]1CC[C@H](Oc2ccc3nc(OC4COC4)sc3c2F)CC1` [Compound I-130], the IC50 stood at 57 nM.

For `CC(=O)N[C@@H](C)CO[C@H]1CC[C@H](Oc2ccc3nc(OCC(C)(C)OC4CCCCO4)sc3c2F)CC1` (stereo partly drawn) [Compound I-131], the IC50 was 334 nM.

As for `CC(=O)N[C@@H](C)CO[C@H]1C[C@H](COc2c(F)cc3nc(C(C)C)sc3c2Cl)C1` [Compound I-132], the IC50 turned out to be 48 nM.

Take `CC(=O)N[C@@H](C)CO[C@H]1C[C@H](COc2cc3sc(C(C)C)nc3cc2F)C1` [Compound I-133]: the IC50 turned out to be 77 nM.

As for `CC(=O)N[C@@H](C)CO[C@H]1CC[C@H](Oc2ccc3nc(C4(F)COC4)sc3c2F)CC1` [Compound I-134], the IC50 worked out at 23 nM.

Turning to `CC(=O)N[C@@H](C)CO[C@H]1C[C@H](COc2ccc3nc(C(C)C)sc3n2)C1` [Compound I-135], the IC50 came to 16 nM.

For the compound `CC(=O)N[C@@H](C)CO[C@H]1C[C@](F)(COc2ccc3nc(C(C)(F)F)sc3c2F)C1` [Compound I-136], the IC50 stood at 87 nM.

With `CC(=O)N[C@@H](C)CO[C@H]1C[C@](F)(COc2ccc3nc(C(C)(F)F)sc3c2Cl)C1` [Compound I-137], the IC50 was 403 nM.

Take `CC(=O)N[C@@H](C)CO[C@H]1C[C@H](COc2ccc3nc(C4(F)CC4)sc3c2F)C1` [Compound I-138]: the IC50 worked out at 91 nM.

Regarding `CC(=O)N[C@@H](C)CO[C@H]1C[C@H](COc2ccc3nc(C(C)(F)F)sc3c2)C1` [Compound I-139], the IC50 was 90 nM.
